Assays:
Assay type in all cases: binding
Parameters in all cases: KINOMEscan: ABL1(F317L)-phosphorylated / KINOMEscan: ABL1(H396P)-nonphosphorylated / KINOMEscan: ABL1(H396P)-phosphorylated / KINOMEscan: ABL1(M351T)-phosphorylated / KINOMEscan: ABL1(T315I)-phosphorylated / KINOMEscan: ABL1-nonphosphorylated / KINOMEscan: ABL1-phosphorylated / KINOMEscan: ACVR2A / KINOMEscan: ACVR2B / KINOMEscan: ADCK3 / KINOMEscan: ADCK4 / KINOMEscan: AKT1 / KINOMEscan: AKT3 / KINOMEscan: ALK / KINOMEscan: ARK5 / KINOMEscan: AURKA / KINOMEscan: AURKC / KINOMEscan: BIKE / KINOMEscan: BMPR1A / KINOMEscan: BMPR1B / KINOMEscan: BMX / KINOMEscan: BRK / KINOMEscan: BRSK1 / KINOMEscan: BRSK2 / KINOMEscan: CAMK1 / KINOMEscan: CAMK1D / KINOMEscan: CAMK1G / KINOMEscan: CAMK2A / KINOMEscan: CAMK2B / KINOMEscan: AAK1 / KINOMEscan: CAMK2D / KINOMEscan: CAMK2G / KINOMEscan: ABL1(F317I)-nonphosphorylated / KINOMEscan: ABL1(F317I)-phosphorylated / KINOMEscan: ABL1(F317L)-nonphosphorylated: unit: % Ctrl
Settings in all cases: Compound Concentration 10 µM
[1] = biological target: T1, panel of 442 kinases (Homo sapiens, UniProt Q86YV6)
T1 construct: purchased KINOMEscan
T1 sequence (Q86YV6 1-388): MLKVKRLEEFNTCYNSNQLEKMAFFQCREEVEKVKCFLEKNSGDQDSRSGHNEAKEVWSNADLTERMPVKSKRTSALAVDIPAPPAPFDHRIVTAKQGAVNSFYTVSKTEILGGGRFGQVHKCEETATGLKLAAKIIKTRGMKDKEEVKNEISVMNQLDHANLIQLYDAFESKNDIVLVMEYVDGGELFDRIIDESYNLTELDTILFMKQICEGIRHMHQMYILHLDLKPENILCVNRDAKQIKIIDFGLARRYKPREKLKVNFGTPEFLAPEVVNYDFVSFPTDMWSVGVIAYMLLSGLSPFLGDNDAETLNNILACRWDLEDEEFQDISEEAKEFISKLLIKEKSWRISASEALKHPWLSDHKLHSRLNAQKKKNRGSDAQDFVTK
Source text: (§1) We assessed the selectivity of members of this scaffold using the KINOMEscan methodology across a near comprehensive panel of 442 kinases [[18,27]].

[2] = biological target: T2, panel of 442 kinases (Homo sapiens, UniProt P00519, F317I)
T2 construct: purchased KINOMEscan
Source text: as §1

[3] = biological target: T3, panel of 442 kinases (Homo sapiens, UniProt O60674)
T3 construct: purchased KINOMEscan
Source text: as §1

T2 sequence (P00519 whole entry F317I): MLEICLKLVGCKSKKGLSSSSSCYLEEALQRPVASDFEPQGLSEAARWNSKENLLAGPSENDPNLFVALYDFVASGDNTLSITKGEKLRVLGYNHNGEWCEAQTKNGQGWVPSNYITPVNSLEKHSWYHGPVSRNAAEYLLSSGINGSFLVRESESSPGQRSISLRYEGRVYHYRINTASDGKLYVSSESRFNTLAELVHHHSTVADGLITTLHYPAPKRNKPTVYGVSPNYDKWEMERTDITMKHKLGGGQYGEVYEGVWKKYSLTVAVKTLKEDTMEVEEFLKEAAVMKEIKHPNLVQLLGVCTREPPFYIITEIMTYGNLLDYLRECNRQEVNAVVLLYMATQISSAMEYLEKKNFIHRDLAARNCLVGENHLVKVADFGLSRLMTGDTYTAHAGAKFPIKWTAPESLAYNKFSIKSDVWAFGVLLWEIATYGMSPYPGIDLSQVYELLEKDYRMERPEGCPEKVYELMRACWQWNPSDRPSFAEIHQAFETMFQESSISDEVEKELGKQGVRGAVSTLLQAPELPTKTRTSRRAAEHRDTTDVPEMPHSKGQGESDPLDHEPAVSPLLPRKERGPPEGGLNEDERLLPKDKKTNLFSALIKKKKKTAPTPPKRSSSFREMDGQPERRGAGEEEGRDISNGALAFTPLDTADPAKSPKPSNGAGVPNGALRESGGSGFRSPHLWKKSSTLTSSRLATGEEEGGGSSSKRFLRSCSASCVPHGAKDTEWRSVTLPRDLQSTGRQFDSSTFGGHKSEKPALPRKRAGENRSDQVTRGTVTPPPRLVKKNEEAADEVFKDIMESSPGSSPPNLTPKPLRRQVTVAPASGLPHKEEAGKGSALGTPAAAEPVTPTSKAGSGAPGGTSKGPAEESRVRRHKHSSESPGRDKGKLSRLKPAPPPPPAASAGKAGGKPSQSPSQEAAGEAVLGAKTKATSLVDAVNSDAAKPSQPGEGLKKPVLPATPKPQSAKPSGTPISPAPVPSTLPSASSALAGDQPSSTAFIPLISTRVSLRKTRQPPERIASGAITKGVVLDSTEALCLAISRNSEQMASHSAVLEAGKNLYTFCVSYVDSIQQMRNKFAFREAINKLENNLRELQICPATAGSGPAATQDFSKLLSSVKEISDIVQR
T3 sequence (O60674 whole entry): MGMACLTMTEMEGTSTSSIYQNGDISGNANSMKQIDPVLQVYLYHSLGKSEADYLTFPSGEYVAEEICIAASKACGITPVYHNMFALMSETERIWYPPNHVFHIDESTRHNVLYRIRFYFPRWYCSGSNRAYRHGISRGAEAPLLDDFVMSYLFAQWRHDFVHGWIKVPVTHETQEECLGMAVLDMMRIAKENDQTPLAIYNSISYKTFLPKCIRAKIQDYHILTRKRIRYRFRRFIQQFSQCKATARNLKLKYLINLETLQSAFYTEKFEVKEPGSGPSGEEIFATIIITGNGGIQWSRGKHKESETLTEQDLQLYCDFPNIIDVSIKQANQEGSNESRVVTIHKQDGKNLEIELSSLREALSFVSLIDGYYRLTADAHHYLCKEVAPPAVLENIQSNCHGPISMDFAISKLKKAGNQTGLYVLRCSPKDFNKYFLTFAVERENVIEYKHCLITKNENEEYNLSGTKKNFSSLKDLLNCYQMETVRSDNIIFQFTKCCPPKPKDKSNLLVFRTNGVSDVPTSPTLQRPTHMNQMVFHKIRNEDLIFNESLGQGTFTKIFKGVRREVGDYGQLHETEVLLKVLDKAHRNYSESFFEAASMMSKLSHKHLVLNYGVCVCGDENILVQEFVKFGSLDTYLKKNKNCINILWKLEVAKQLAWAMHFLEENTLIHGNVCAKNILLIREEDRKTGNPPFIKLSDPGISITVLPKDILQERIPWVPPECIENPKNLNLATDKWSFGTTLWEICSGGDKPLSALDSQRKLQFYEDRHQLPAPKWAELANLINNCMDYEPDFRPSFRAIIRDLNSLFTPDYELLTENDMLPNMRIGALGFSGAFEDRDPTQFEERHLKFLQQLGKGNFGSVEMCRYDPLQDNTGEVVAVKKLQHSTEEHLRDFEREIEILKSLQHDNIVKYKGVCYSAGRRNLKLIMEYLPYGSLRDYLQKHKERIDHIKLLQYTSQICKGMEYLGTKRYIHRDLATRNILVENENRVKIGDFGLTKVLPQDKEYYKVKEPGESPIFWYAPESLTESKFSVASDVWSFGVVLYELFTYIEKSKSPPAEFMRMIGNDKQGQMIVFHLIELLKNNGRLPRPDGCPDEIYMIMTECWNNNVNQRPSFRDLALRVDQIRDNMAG

| Compound | KINOMEscan: MYLK4 [1] | KINOMEscan: ABL1(F317I)-nonphosphorylated [2] | KINOMEscan: ABL1(F317I)-phosphorylated [2] | KINOMEscan: JAK2(JH1domain-catalytic) [3] |
| --- | --- | --- | --- | --- |
| COc1cc(C(=O)N2CCC(N3CCN(C)CC3)CC2)ccc1Nc1ncc2c(n1)N(C)c1ccccc1C(=O)N2C [15 (LRRK2-IN-1)] | 80 | 15 | 17 | 70 |
| COc1cc(C(=O)N2CCC(N3CCN(C)CC3)CC2)ccc1Nc1ncc2c(n1)N1CCc3cccc(c31)C(=O)N2C [Compound 24] | 78 | 17 | 24 | – |
| COc1cc(C(=O)N2CCC(N3CCN(C)CC3)CC2)ccc1Nc1ncc2c(n1)N(C1CCCC1)c1ccccc1C(=O)N2C [Compound 25, 11-cyclopentyl-2-((2-methoxy-4-(4-(4-methylpiperazin-1-yl)piperidine-1-carbonyl)phenyl)amino)-5-methyl-5H-benzo[e]pyrimido[5,4-b][1,4]diazepin-6(11H)-one] | 88 | 26 | 29 | 95 |
| CCOc1cc(C(=O)N2CCC(N3CCN(C)CC3)CC2)ccc1Nc1ncc2c(n1)N(C1CCCC1)c1ccccc1C(=O)N2C [Compound 26] | 100 | 51 | 64 | 100 |

From publication PMC3914206
